Experimental data: paper PMC10600239, “Selective MCL-1 inhibitor ABBV-467 is efficacious in tumor models but is associated with cardiac troponin increases in patients” (Communications Medicine, 2023)
Where “and” joins values, the source holds several entries; their conditions need not be identical. Equal entries are not always repeated.

System: AMO-1 xenografts
Assay: AMO-1 xenograft efficacy (tumor volume, body weight)
Assay type: in vivo, mouse
Design: key to Anti-tumor Activity vs. AMO-1 (DSMZ), Median / Anti-tumor Activity vs. AMO-1 (DSMZ), individual animal / Anti-tumor Activity vs. AMO-1 (DSMZ), Mean: tumor volume in mm^3 (length × width^2/2)
Experimental: All animal studies were conducted in accordance with the guidelines approved by the Institutional Animal Care and Use Committees of AbbVie. The research protocol was approved by In Vivo Pharmacology at AbbVie prior to study initiation but was not publicly registered or disclosed. Female C.B-17 SCID-beige mice (AMO-1, OPM-2, NCI-H929, and OCI-AML2 xenografts) and female NSG mice (MV4-11-Red.Fluc systemic) were purchased from Charles River Laboratories (Wilmington, MA). Animals were housed in a light cycle-controlled room with HEPA filtration at 22 °C. Animals had nesting and climbing cage topper as the primary environmental enrichment. Animals were inoculated subcutaneously in the right flank with 5 × 10^6 (AMO-1, OPM-2, NCI-H929, and OCI-AML2) or intravenous (IV) with 5 × 10^6 (MV4-11-Red.Fluc). The inoculation volume (0.2 mL) comprised a 50:50 mixture of cells in growth media and Matrigel (BD Biosciences) for subcutaneous injections and 100% phosphate-buffered saline for IV administration. All cell lines used in this publication were authenticated using IDEXX for STR profiling as well as their IMPACT and human IMPACT panels for pathogen screening. Electronic calipers were used to measure the length and width of each tumor 2 to 3 times per week. Tumor volume was estimated by applying the following equation: volume = length × width^2/2. All groups remained blinded during measurements and dosing; only veterinary staff were aware of group identity. When tumors reached approximately 200 mm^3, mice were randomized by match and distributed into treatment and control groups. All xenograft trials were conducted using 5 to 10 mice per group, and all mice were ear tagged and monitored individually throughout the studies. […] Tumor burden in the systemic MV4-11-Red.Fluc experiment was measured using an IVIS® spectrum from PerkinElmer by taking the total photon flux of the entire dorsal side of an individual mouse. […] A background control mouse that was tumor naive but received D-Luciferin was placed in the upper left corner of each image. The total flux from this animal was subtracted from the total flux of each animal present in the image.
For in vivo studies, maximal tumor growth inhibition (TGI) was calculated as the greatest treatment response using the following equation: Maximal TGI = (1 − mean tumor volume of the treated group/mean tumor volume of the vehicle control group) × 100. The tumor growth delay (TGD) percentage was determined as the percentage increase of the median time period for the treatment group to reach an arbitrary tumor volume of 1000 mm^3 relative to the vehicle control group. […] A power analysis was conducted using historical data to determine the number of animals required to yield significance of 0.05 at a 30% difference. […] Data from experiments in vivo were analyzed using the student’s t-test for TGI values and the Mann–Whitney U test for TGD using Excel and GraphPad Prism. Fisher’s exact test was used to probe significance of differences in response frequency.

[1] = 6.25 mg/kg IV QDx1, Day 13 (day before dosing begins)
[2] = 6.25 mg/kg Q7Dx2 IV, SCID-beige female mice, Day 21
[3] = 6.25 mg/kg Q7Dx2 IV, SCID-beige female mice, Day 24

Cc1c(Cl)c2c(Cl)c(C)c1-c1c(-c3ccc(F)cc3)sc3ncnc(c13)O[C@@H](C(=O)O)Cc1cc(ccc1OCc1ccnc(-c3ccc(OC[C@H]4COCCO4)cc3)n1)OC[C@@H](CN1CCN(C)CC1)O2 [Compound A-1747745.0]
Anti-tumor Activity vs. AMO-1 (DSMZ), Median (6.25 mg/kg IV QDx1, day 23): 225.89
Group Mean, Body Weight (6.25 mg/kg IV QDx1, day 23): 22.00 g
Anti-tumor Activity vs. AMO-1 (DSMZ), Mean (6.25 mg/kg IV QDx1, day 26): 454.97
Anti-tumor Activity vs. AMO-1 (DSMZ), Median (6.25 mg/kg IV QDx1, day 26): 392.97
Anti-tumor Activity vs. AMO-1 (DSMZ), Mean (6.25 mg/kg IV QDx1, day 28): 690.68
Anti-tumor Activity vs. AMO-1 (DSMZ), Median (6.25 mg/kg IV QDx1, day 28): 578.26
Group Mean, Body Weight (6.25 mg/kg IV QDx1, day 28): 22.25 g
Anti-tumor Activity vs. AMO-1 (DSMZ), Mean (6.25 mg/kg IV QDx1, day 30): 882.20
Anti-tumor Activity vs. AMO-1 (DSMZ), Median (6.25 mg/kg IV QDx1, day 30): 791.67
Anti-tumor Activity vs. AMO-1 (DSMZ), Mean (6.25 mg/kg IV QDx1, day 34): 1592.98
Anti-tumor Activity vs. AMO-1 (DSMZ), Median (6.25 mg/kg IV QDx1, day 34): 1465.20
Anti-tumor Activity vs. AMO-1 (DSMZ), Mean (6.25 mg/kg IV QDx1, day 36): 1754.60
Anti-tumor Activity vs. AMO-1 (DSMZ), Median (6.25 mg/kg IV QDx1, day 36): 1695.89
Xenograft AMO-1 (DSMZ) tumor volume Day 13, Mean [1]: 216.25 mm³
Xenograft AMO-1 (DSMZ) tumor volume Day 13, Median [1]: 216.39 mm³
% T/C (mean) [1]: 100.07%
% T/C (median) [1]: 100.10%
Xenograft AMO-1 (DSMZ) (mm³) Day 13, individual animals (6.25 mg/kg IV QDx1, SCID-beige female mice, Day 13 (randomization, day before dosing begins)): 219 mm³ and 211 mm³ and 216 mm³ and 221 mm³ and 217 mm³ and 214 mm³ and 224 mm³ and 208 mm³
Mortality Observation Day 32 (6.25 mg/kg Q7Dx2 IV, AMO-1 (DSMZ) xenograft, SCID-beige female mice, per animal): EUTV (6×) and GRPX
% T/C (mean) (6.25 mg/kg Q7Dx2 IV, Day 13): 101.00%
% T/C (median) (6.25 mg/kg Q7Dx2 IV, Day 13): 98.08%
% T/C (mean) (6.25 mg/kg Q7Dx2 IV, Day 19): 30.07%
% T/C (median) (6.25 mg/kg Q7Dx2 IV, Day 19): 31.46%
% T/C (mean) (6.25 mg/kg Q7Dx2 IV, Day 21): 29.54%
% T/C (median) (6.25 mg/kg Q7Dx2 IV, Day 21): 27.04%
% T/C (mean) (6.25 mg/kg Q7Dx2 IV, Day 24): 22.09%
% T/C (median) (6.25 mg/kg Q7Dx2 IV, Day 24): 20.32%
% T/C (mean) (6.25 mg/kg Q7Dx2 IV, Day 26): 21.67%
% T/C (median) (6.25 mg/kg Q7Dx2 IV, Day 26): 14.15%
% T/C (mean) (6.25 mg/kg Q7Dx2 IV, Day 28): 23.23%
% T/C (median) (6.25 mg/kg Q7Dx2 IV, Day 28): 13.94%
Xenograft AMO-1 (DSMZ) Day 19 Mean (6.25 mg/kg Q7Dx2 IV, SCID-beige female mice, Day 19, group mean tumor volume): 118.80 mm³
Xenograft AMO-1 (DSMZ) Day 19 Median (6.25 mg/kg Q7Dx2 IV, SCID-beige female mice, Day 19, group median tumor volume): 115.27 mm³
Xenograft AMO-1 (DSMZ) (mm³) Day 19, individual animals (6.25 mg/kg Q7Dx2 IV, SCID-beige female mice, Day 19, individual tumor volumes): 119 mm³ and 199 mm³ and 123 mm³ and 80 mm³ and 92 mm³ and 115 mm³ and 104 mm³
Xenograft AMO-1 (DSMZ) Day 21, Mean [2]: 190.88 mm³
Xenograft AMO-1 (DSMZ) Day 21, Median [2]: 163.99 mm³
Xenograft AMO-1 (DSMZ) tumor volume Day 21, individual animals [2]: 209 mm³ and 370 mm³ and 179 mm³ and 144 mm³ and 116 mm³ and 164 mm³ and 155 mm³
Xenograft AMO-1 (DSMZ) (mm³) Day 24, individual animals [3]: 184 mm³ and 451 mm³ and 200 mm³ and 190 mm³ and 174 mm³ and 138 mm³ and 133 mm³
Xenograft AMO-1 (DSMZ) tumor volume Day 24, Mean [3]: 210.06 mm³
